Earlier results as cited in article PMC8146789, “20-Hydroxyecdysone, from Plant Extracts to Clinical Use: Therapeutic Potential for the Treatment of Neuromuscular, Cardio-Metabolic and Respiratory Diseases” (Biomedicines, 2021).
Read-outs that look alike come from different tables or passages of the source.

What was measured:
[1] = set-up: method as in Wu et al. [124]; details: mice, ref Wu et al. [124], cited from earlier work
[2] = set-up: method as in PMID 21439380, PMID 33819630; details: mice, oral; ref [126],[127]; cited from earlier work
ovariectomized rats = test system: ovariectomized rats; set-up: method as in Seidlova-Wuttke et al. [57],[94]; details: up to 500 mg/kg daily for 3 months, ref Seidlova-Wuttke et al. [57],[94]; cited from earlier work
bullfrogs = details: up to 600 mg/kg in the lymph sinus, ref [121]; cited from earlier work
C2C12 myotubes = test system: C2C12 myotubes; set-up: method as in PMID 24974955; details: 20E 1 μM; ref [54]; cited from earlier work
[3] = set-up: method as in PMID 4650153; details: mice, oral; ref [122]; cited from earlier work

CC(C)(O)CC[C@@H](O)[C@](C)(O)[C@H]1CC[C@@]2(O)C3=CC(=O)[C@@H]4C[C@@H](O)[C@@H](O)C[C@]4(C)[C@H]3CC[C@]12C [20E, 2β,3β,14α,20R,22R,25-hexahydroxy-5β-cholest-7-en-6-one]
quantitative distribution, Adrenals ([1]; 5 min): 0.184 µg/g | quantitative distribution, Bile ([1]; 5 min): 0.421 µg/g | quantitative distribution, Bladder ([1]; 5 min): 0.013 µg/g | quantitative distribution, Blood plasma ([1]; 5 min): 0.061 µg/g | quantitative distribution, Brain ([1]; 5 min): 0.013 µg/g | quantitative distribution, Feces ([1]; 5 min): 0.015 µg/g | quantitative distribution, Heart ([1]; 5 min): 0.062 µg/g | quantitative distribution, Kidney ([1]; 5 min): 0.137 µg/g | quantitative distribution, Large intestine ([1]; 5 min): 0.011 µg/g | quantitative distribution, Liver ([1]; 5 min): 0.312 µg/g | quantitative distribution, Lungs ([1]; 5 min): 0.116 µg/g | quantitative distribution, Skeletal muscle ([1]; 5 min): 0.021 µg/g | quantitative distribution, Small intestine ([1]; 5 min): 0.254 µg/g | quantitative distribution, Spinal cord ([1]; 5 min): 0.019 µg/g | quantitative distribution, Spleen ([1]; 5 min): 0.041 µg/g | quantitative distribution, Stomach ([1]; 5 min): 0.034 µg/g | quantitative distribution, Testis ([1]; 5 min): 0.048 µg/g | quantitative distribution, Urine ([1]; 5 min): 0.482 µg/g | quantitative distribution, Adrenals ([1]; 10 min): 0.139 µg/g | quantitative distribution, Bile ([1]; 10 min): 0.456 µg/g | quantitative distribution, Bladder ([1]; 10 min): 0.024 µg/g | quantitative distribution, Blood plasma ([1]; 10 min): 0.057 µg/g | quantitative distribution, Brain ([1]; 10 min): 0.014 µg/g | quantitative distribution, Feces ([1]; 10 min): 0.019 µg/g | quantitative distribution, Heart ([1]; 10 min): 0.052 µg/g | quantitative distribution, Kidney ([1]; 10 min): 0.123 µg/g | quantitative distribution, Large intestine ([1]; 10 min): 0.023 µg/g | quantitative distribution, Liver ([1]; 10 min): 0.251 µg/g | quantitative distribution, Lungs ([1]; 10 min): 0.069 µg/g | quantitative distribution, Skeletal muscle ([1]; 10 min): 0.023 µg/g | quantitative distribution, Small intestine ([1]; 10 min): 0.139 µg/g | quantitative distribution, Spinal cord ([1]; 10 min): 0.028 µg/g | quantitative distribution, Spleen ([1]; 10 min): 0.026 µg/g | quantitative distribution, Stomach ([1]; 10 min): 0.047 µg/g | quantitative distribution, Testis ([1]; 10 min): 0.036 µg/g | quantitative distribution, Urine ([1]; 10 min): 0.921 µg/g | quantitative distribution, Adrenals ([1]; 30 min): 0.098 µg/g | quantitative distribution, Bile ([1]; 30 min): 1.042 µg/g | quantitative distribution, Bladder ([1]; 30 min): 0.038 µg/g | quantitative distribution, Blood plasma ([1]; 30 min): 0.052 µg/g | quantitative distribution, Brain ([1]; 30 min): 0.015 µg/g | quantitative distribution, Feces ([1]; 30 min): 0.035 µg/g | quantitative distribution, Heart ([1]; 30 min): 0.035 µg/g | quantitative distribution, Kidney ([1]; 30 min): 0.098 µg/g | quantitative distribution, Large intestine ([1]; 30 min): 0.029 µg/g | quantitative distribution, Liver ([1]; 30 min): 0.213 µg/g | quantitative distribution, Lungs ([1]; 30 min): 0.057 µg/g | quantitative distribution, Skeletal muscle ([1]; 30 min): 0.028 µg/g | quantitative distribution, Small intestine ([1]; 30 min): 0.094 µg/g | quantitative distribution, Spinal cord ([1]; 30 min): 0.067 µg/g | quantitative distribution, Spleen ([1]; 30 min): 0.024 µg/g | quantitative distribution, Stomach ([1]; 30 min): 0.075 µg/g | quantitative distribution, Testis ([1]; 30 min): 0.029 µg/g | quantitative distribution, Urine ([1]; 30 min): 1.534 µg/g | quantitative distribution, Adrenals ([1]; 1 h): 0.081 µg/g | quantitative distribution, Bile ([1]; 1 h): 0.901 µg/g | quantitative distribution, Bladder ([1]; 1 h): 0.026 µg/g | quantitative distribution, Blood plasma ([1]; 1 h): 0.047 µg/g | quantitative distribution, Brain ([1]; 1 h): 0.013 µg/g | quantitative distribution, Feces ([1]; 1 h): 0.068 µg/g | quantitative distribution, Heart ([1]; 1 h): 0.033 µg/g | quantitative distribution, Kidney ([1]; 1 h): 0.071 µg/g | quantitative distribution, Large intestine ([1]; 1 h): 0.031 µg/g | quantitative distribution, Liver ([1]; 1 h): 0.112 µg/g | quantitative distribution, Lungs ([1]; 1 h): 0.053 µg/g | quantitative distribution, Skeletal muscle ([1]; 1 h): 0.017 µg/g | quantitative distribution, Small intestine ([1]; 1 h): 0.083 µg/g | quantitative distribution, Spinal cord ([1]; 1 h): 0.041 µg/g | quantitative distribution, Spleen ([1]; 1 h): 0.018 µg/g | quantitative distribution, Stomach ([1]; 1 h): 0.061 µg/g | quantitative distribution, Testis ([1]; 1 h): 0.026 µg/g | quantitative distribution, Urine ([1]; 1 h): 0.281 µg/g | quantitative distribution, Adrenals ([1]; 3 h): 0.073 µg/g | quantitative distribution, Bile ([1]; 3 h): 0.301 µg/g | quantitative distribution, Bladder ([1]; 3 h): 0.023 µg/g | quantitative distribution, Blood plasma ([1]; 3 h): 0.032 µg/g | quantitative distribution, Brain ([1]; 3 h): 0.012 µg/g | quantitative distribution, Feces ([1]; 3 h): 0.099 µg/g | quantitative distribution, Heart ([1]; 3 h): 0.031 µg/g | quantitative distribution, Kidney ([1]; 3 h): 0.055 µg/g | quantitative distribution, Large intestine ([1]; 3 h): 0.035 µg/g | quantitative distribution, Liver ([1]; 3 h): 0.078 µg/g | quantitative distribution, Lungs ([1]; 3 h): 0.049 µg/g | quantitative distribution, Skeletal muscle ([1]; 3 h): 0.015 µg/g | quantitative distribution, Small intestine ([1]; 3 h): 0.076 µg/g | quantitative distribution, Spinal cord ([1]; 3 h): 0.033 µg/g | quantitative distribution, Spleen ([1]; 3 h): 0.023 µg/g | quantitative distribution, Stomach ([1]; 3 h): 0.053 µg/g | quantitative distribution, Testis ([1]; 3 h): 0.023 µg/g | quantitative distribution, Urine ([1]; 3 h): 0.102 µg/g | quantitative distribution, Adrenals ([1]; 6 h): 0.065 µg/g | quantitative distribution, Bile ([1]; 6 h): 0.209 µg/g | quantitative distribution, Bladder ([1]; 6 h): 0.018 µg/g | quantitative distribution, Blood plasma ([1]; 6 h): 0.023 µg/g | quantitative distribution, Brain ([1]; 6 h): 0.01 µg/g | quantitative distribution, Feces ([1]; 6 h): 0.931 µg/g | quantitative distribution, Heart ([1]; 6 h): 0.029 µg/g | quantitative distribution, Kidney ([1]; 6 h): 0.043 µg/g | quantitative distribution, Large intestine ([1]; 6 h): 0.048 µg/g | quantitative distribution, Liver ([1]; 6 h): 0.061 µg/g | quantitative distribution, Lungs ([1]; 6 h): 0.045 µg/g | quantitative distribution, Skeletal muscle ([1]; 6 h): 0.013 µg/g | quantitative distribution, Small intestine ([1]; 6 h): 0.061 µg/g | quantitative distribution, Spinal cord ([1]; 6 h): 0.024 µg/g | quantitative distribution, Spleen ([1]; 6 h): 0.027 µg/g | quantitative distribution, Stomach ([1]; 6 h): 0.041 µg/g | quantitative distribution, Testis ([1]; 6 h): 0.021 µg/g | quantitative distribution, Urine ([1]; 6 h): 0.096 µg/g | quantitative distribution, Adrenals ([1]; 12 h): 0.052 µg/g | quantitative distribution, Bile ([1]; 12 h): 0.198 µg/g | quantitative distribution, Bladder ([1]; 12 h): 0.015 µg/g | quantitative distribution, Blood plasma ([1]; 12 h): 0.015 µg/g | quantitative distribution, Brain ([1]; 12 h): 0.008 µg/g | quantitative distribution, Feces ([1]; 12 h): 0.312 µg/g | quantitative distribution, Heart ([1]; 12 h): 0.023 µg/g | quantitative distribution, Kidney ([1]; 12 h): 0.037 µg/g | quantitative distribution, Large intestine ([1]; 12 h): 0.038 µg/g | quantitative distribution, Liver ([1]; 12 h): 0.056 µg/g | quantitative distribution, Lungs ([1]; 12 h): 0.036 µg/g | quantitative distribution, Skeletal muscle ([1]; 12 h): 0.011 µg/g | quantitative distribution, Small intestine ([1]; 12 h): 0.05 µg/g | quantitative distribution, Spinal cord ([1]; 12 h): 0.020 µg/g | quantitative distribution, Spleen ([1]; 12 h): 0.032 µg/g | quantitative distribution, Stomach ([1]; 12 h): 0.032 µg/g | quantitative distribution, Testis ([1]; 12 h): 0.019 µg/g | quantitative distribution, Urine ([1]; 12 h): 0.087 µg/g | quantitative distribution, Adrenals ([1]; 24 h): 0.043 µg/g | quantitative distribution, Bile ([1]; 24 h): 0.094 µg/g | quantitative distribution, Bladder ([1]; 24 h): 0.013 µg/g | quantitative distribution, Blood plasma ([1]; 24 h): 0.011 µg/g | quantitative distribution, Brain ([1]; 24 h): 0.007 µg/g | quantitative distribution, Feces ([1]; 24 h): 0.041 µg/g | quantitative distribution, Heart ([1]; 24 h): 0.022 µg/g | quantitative distribution, Kidney ([1]; 24 h): 0.032 µg/g | quantitative distribution, Large intestine ([1]; 24 h): 0.023 µg/g | quantitative distribution, Liver ([1]; 24 h): 0.046 µg/g | quantitative distribution, Lungs ([1]; 24 h): 0.028 µg/g | quantitative distribution, Skeletal muscle ([1]; 24 h): 0.010 µg/g | quantitative distribution, Small intestine ([1]; 24 h): 0.033 µg/g | quantitative distribution, Spinal cord ([1]; 24 h): 0.018 µg/g | quantitative distribution, Spleen ([1]; 24 h): 0.027 µg/g | quantitative distribution, Stomach ([1]; 24 h): 0.023 µg/g | quantitative distribution, Testis ([1]; 24 h): 0.017 µg/g | quantitative distribution, Urine ([1]; 24 h): 0.046 µg/g | time at which 20E starts to reach the large intestine [2]: ca. 30 min | detrimental effects (ovariectomized rats): no stated detrimental effects | effects after administration (bullfrogs): no effects were seen | myotube diameter (C2C12 myotubes): enhanced myotube diameter | bioavailability [3]: low | radioactivity crossing the intestinal tract, of that administered [3]: < 2% | route of elimination [3]: essentially fecal
